“And” between values parts separate entries of the source, which are not always exact repeats. Equal entries are not always repeated. Where two headings read alike, the source gives them in different places.
Assays:
[1] = tested on: PDO6; assay: cell viability in patient-derived CRC organoids PDO6; assay type: cell-based, human
Experimental: (§1) For in vitro treatment studies, organoids were mechanically dissociated and digested using TrypLE supplemented with 100 µg ml^−1 DNaseI and 10.5 µM Y-27632 dihydrochloride (Invitrogen) at 37 °C. A total of 1,000–2,000 single cells were plated per well in white 96-well plates (Greiner) in culture medium containing 10% GFR Matrigel or Cultrex BME. The treatment with doxycycline (5 µg ml^−1), pharmacological inhibitors or corresponding volumes of DMSO was started 24 h after plating. Doxycycline was obtained from Sigma-Aldrich. […] Cell viability was measured by means of CellTiter-Glo 3D or CellTiter-Glo 2.0 reagent (Promega) according to the manufacturers’ instructions and the Infinite M Plex reader (Tecan, i-control version 3.9.1 software). Results were normalized to vehicle (DMSO) or to shNC. For cell-doubling assays, the cell number was quantified at the corresponding time points using Guava EasyCyte flow cytometer (Luminex, CytoSoft v5.2 software).

[2] = tested on: PDO9; assay: cell viability in patient-derived CRC organoids PDO9; assay type: cell-based, human
Experimental: as §1

[3] = tested on: PDO10; assay: cell viability in patient-derived CRC organoids PDO10; assay type: cell-based, human
Experimental: as §1

[4] = tested on: PDO14; assay: cell viability in patient-derived CRC organoids PDO14; assay type: cell-based, human
Experimental: as §1

[5] = tested on: HCT-15; assay: cell viability in human CRC cell line HCT-15; assay type: cell-based; conditions: 4 d
Experimental: (§2) To generate KAP^2D cells, KAP organoids were isolated from Matrigel, fragmented by mechanical dissociation and plated without any extracellular matrix on common cell culture dishes. Phoenix-Eco packaging cells (CRL-3214), HCT-15 (CCL-225), HCT 116 (CCL-247), COLO 205 (CCL-222), LS 174T (CL-188), RKO (CRL-2577) and HT-29 (HTB-38) were obtained from the American Type Culture Collection. The cells were cultured at 37 °C and 7% CO2 with RPMI (KAP^2D cells) or DMEM (other cell lines), supplemented with 10% FBS and penicillin–streptomycin. KAP^2D cells were authenticated using PCR (Kras locus and Trp53 locus). Phoenix-Eco packaging cells and HCT-15, HCT 116, COLO 205, LS 174T, RKO and HT-29 cells were authenticated by the provider using short tandem repeat profiling. No commonly misidentified cell lines were used. Mycoplasma contamination was excluded by a PCR-based analysis.
as §1

[6] = tested on: COLO 205; assay: cell viability in human CRC cell line COLO 205; assay type: cell-based; conditions: 4 d
Experimental: as §2, §1

[7] = tested on: LS 174T; assay: cell viability in human CRC cell line LS 174T; assay type: cell-based; conditions: 4 d
Experimental: The cells were cultured at 37 °C and 7% CO2 with RPMI (KAP^2D cells) or DMEM (other cell lines), supplemented with 10% FBS and penicillin–streptomycin. […] No commonly misidentified cell lines were used. Mycoplasma contamination was excluded by a PCR-based analysis.

[8] = tested on: HT-29; assay: cell viability in human CRC cell line HT-29; assay type: cell-based; conditions: ED Fig. 9h, replicates; for viability at 0.0137 µM / viability at 0.0412 µM / viability at 0.1235 µM / viability at 0.3704 µM / viability at 1.1111 µM / viability at 3.3333 µM / viability at 10 µM: Homo sapiens, read-out: HT-29 Cell viability (%); for viability at 0.0137 µM: HT-29, 0.0137 µM; for viability at 0.0412 µM: HT-29, 0.0412 µM; for viability at 0.1235 µM: HT-29, 0.1235 µM; for viability at 0.3704 µM: HT-29, 0.3704 µM; for viability at 1.1111 µM: HT-29, 1.1111 µM; for viability at 3.3333 µM: HT-29, 3.3333 µM; for viability at 10 µM: HT-29, 10.0000 µM
Experimental: as §2, §1

[9] = tested on: KAP^2D cells; assay: quantification of viable KAP^2D cells over time (cell-doubling assay); assay type: cell-based, mouse; conditions: Fig. 4i
Experimental: The treatment with doxycycline (5 µg ml^−1), pharmacological inhibitors or corresponding volumes of DMSO was started 24 h after plating. […] Cell viability was measured by means of CellTiter-Glo 3D or CellTiter-Glo 2.0 reagent (Promega) according to the manufacturers’ instructions and the Infinite M Plex reader (Tecan, i-control version 3.9.1 software). Results were normalized to vehicle (DMSO) or to shNC. For cell-doubling assays, the cell number was quantified at the corresponding time points using Guava EasyCyte flow cytometer (Luminex, CytoSoft v5.2 software).

O=C(NCCN1CCOCC1)c1ccc2c(c1)C(=O)c1ccc(Nc3ccc(F)c(NC(=O)c4ccccc4)c3)cc1CC2 [Compound 1639]
viability at 1 µM ([1]; Homo sapiens, 96 h, PDO6, 1 µM, 4 days, read-out: Cell viability (%)): 88.1% | Cell viability (%) ([1]; PDO6, 0.5 µM, 4 d, 0.5 µM): 89.33% and 120.75% and 95.55% | Cell viability (%) ([1]; PDO6, 1 µM, 4 days, 1 µM): 103.21% and 96.02% | viability at 1 µM ([2]; Homo sapiens, 96 h, PDO9, 1 µM, 4 days): 76.2% | Cell viability (%) ([2]; PDO9, 0.5 µM, 4 d, 0.5 µM): 87.86% and 110.04% and 106.00% | Cell viability (%) ([2]; PDO9, 1 µM, 4 days, 1 µM): 91.05% and 91.07% | viability at 0.5 µM ([3]; Homo sapiens, 96 h, PDO10, 0.5 µM, 4 d, read-out: Cell viability (%)): 90.3% | viability at 1 µM ([3]; Homo sapiens, 96 h, PDO10, 1 µM, 4 days, read-out: Cell viability (%)): 87.1% | Cell viability (%) ([3]; PDO10, 0.5 µM, 4 d, 0.5 µM): 99.84% and 101.72% | Cell viability (%) ([3]; PDO10, 1 µM, 4 days, 1 µM): 92.00% and 89.92% | viability at 0.5 µM ([4]; Homo sapiens, 96 h, PDO14, 0.5 µM, 4 d, read-out: Cell viability (%)): 101% | viability at 1 µM ([4]; Homo sapiens, 96 h, PDO14, 1 µM, 4 days, read-out: Cell viability (%)): 105% | Cell viability (%) ([4]; PDO14, 0.5 µM, 4 d, 0.5 µM): 102.33% and 109.28% | Cell viability (%) ([4]; PDO14, 1 µM, 4 days, 1 µM): 95.42% and 93.44% | HCT-15 Cell viability (%) ([5]; 0.0137 µM): 92.80% and 91.50% and 85.00% and 82.22% and 80.95% | HCT-15 Cell viability (%) ([5]; 0.0412 µM): 78.90% and 80.07% and 94.65% and 93.32% and 92.61% | HCT-15 Cell viability (%) ([5]; 0.1235 µM): 84.07% and 87.40% and 91.28% and 90.94% and 89.46% | HCT-15 Cell viability (%) ([5]; 0.3704 µM): 84.12% and 88.83% and 87.00% and 85.77% and 86.10% | HCT-15 Cell viability (%) ([5]; 1.1111 µM): 77.30% and 80.39% and 72.06% and 72.72% and 71.41% | HCT-15 Cell viability (%) ([5]; 3.3333 µM): 62.02% and 64.03% and 55.98% and 56.04% and 55.89% | HCT-15 Cell viability (%) ([5]; 10.0000 µM): 36.90% and 37.04% and 27.63% and 27.72% and 28.84% | viability at 0.0137 µM ([5]; Homo sapiens, HCT-15, 96 h, 0.0137 µM, read-out: HCT-15 Cell viability (%)): 95.1% | viability at 0.0412 µM ([5]; Homo sapiens, HCT-15, 96 h, 0.0412 µM, read-out: HCT-15 Cell viability (%)): 77.5% | viability at 0.1235 µM ([5]; Homo sapiens, HCT-15, 96 h, 0.1235 µM, read-out: HCT-15 Cell viability (%)): 82.6% | viability at 0.3704 µM ([5]; Homo sapiens, HCT-15, 96 h, 0.3704 µM, read-out: HCT-15 Cell viability (%)): 80.4% | viability at 1.1111 µM ([5]; Homo sapiens, HCT-15, 96 h, 1.1111 µM, read-out: HCT-15 Cell viability (%)): 74% | viability at 3.3333 µM ([5]; Homo sapiens, HCT-15, 96 h, 3.3333 µM, read-out: HCT-15 Cell viability (%)): 56.5% | viability at 10 µM ([5]; Homo sapiens, HCT-15, 96 h, 10.0000 µM, read-out: HCT-15 Cell viability (%)): 36.6% | COLO 205 Cell viability (%) ([6]; 0.0137 µM): 96.89% and 92.36% and 102.13% and 110.53% and 105.25% | COLO 205 Cell viability (%) ([6]; 0.0412 µM): 99.77% and 107.60% and 109.36% and 77.71% and 88.84% and 87.27% | COLO 205 Cell viability (%) ([6]; 0.1235 µM): 93.71% and 107.24% and 99.74% and 85.52% and 87.44% and 87.93% | COLO 205 Cell viability (%) ([6]; 0.3704 µM): 100.71% and 94.45% and 83.28% and 88.21% and 85.79% | COLO 205 Cell viability (%) ([6]; 1.1111 µM): 89.26% and 96.25% and 98.03% and 68.45% and 75.66% and 76.80% | viability at 0.0137 µM ([6]; Homo sapiens, COLO 205, 96 h, 0.0137 µM): 98.5% | viability at 0.3704 µM ([6]; Homo sapiens, COLO 205, 96 h, 0.3704 µM): 92.5% | LS 174T Cell viability (%) ([7]; 0.0137 µM): 96.96% and 98.13% and 93.47% and 92.87% and 103.70% | LS 174T Cell viability (%) ([7]; 0.0412 µM): 88.17% and 87.93% and 84.72% and 87.30% and 86.06% | LS 174T Cell viability (%) ([7]; 0.1235 µM): 73.32% and 74.11% and 80.93% and 80.83% and 84.53% | LS 174T Cell viability (%) ([7]; 0.3704 µM): 72.52% and 70.49% and 77.50% and 75.15% and 72.31% | LS 174T Cell viability (%) ([7]; 1.1111 µM): 73.18% and 76.23% and 79.82% and 74.44% and 73.58% | LS 174T Cell viability (%) ([7]; 3.3333 µM): 64.63% and 65.58% and 65.84% and 62.28% and 62.47% | LS 174T Cell viability (%) ([7]; 10.0000 µM): 22.96% and 24.63% and 23.18% and 23.96% and 22.77% | viability at 0.0137 µM ([7]; Homo sapiens, LS174T, 96 h, 0.0137 µM, read-out: LS 174T Cell viability (%)): 95% | viability at 0.0412 µM ([7]; Homo sapiens, LS174T, 96 h, 0.0412 µM, read-out: LS 174T Cell viability (%)): 81.8% | viability at 0.1235 µM ([7]; Homo sapiens, LS174T, 96 h, 0.1235 µM, read-out: LS 174T Cell viability (%)): 73.7% | viability at 0.3704 µM ([7]; Homo sapiens, LS174T, 96 h, 0.3704 µM, read-out: LS 174T Cell viability (%)): 74.4% | viability at 1.1111 µM ([7]; Homo sapiens, LS174T, 96 h, 1.1111 µM, read-out: LS 174T Cell viability (%)): 77.1% | viability at 3.3333 µM ([7]; Homo sapiens, LS174T, 96 h, 3.3333 µM, read-out: LS 174T Cell viability (%)): 68.9% | viability at 10 µM ([7]; Homo sapiens, LS174T, 96 h, 10.0000 µM, read-out: LS 174T Cell viability (%)): 24.4% | HT-29 Cell viability (%) ([8]; 0.0137 µM, Repetition): 102.28% and 94.62% | HT-29 Cell viability (%) ([8]; 0.0137 µM, first experiment): 94.47% and 95.05% | HT-29 Cell viability (%) ([8]; 0.0412 µM, Repetition): 101.53% and 96.63% | HT-29 Cell viability (%) ([8]; 0.0412 µM, first experiment): 94.54% and 96.05% | HT-29 Cell viability (%) ([8]; 0.1235 µM, Repetition): 102.40% and 91.02% | HT-29 Cell viability (%) ([8]; 0.1235 µM, first experiment): 88.93% and 89.95% | HT-29 Cell viability (%) ([8]; 0.3704 µM, Repetition): 96.43% and 88.31% | HT-29 Cell viability (%) ([8]; 0.3704 µM, first experiment): 89.51% and 89.95% | HT-29 Cell viability (%) ([8]; 1.1111 µM, Repetition): 89.29% and 79.16% | HT-29 Cell viability (%) ([8]; 1.1111 µM, first experiment): 95.25% and 92.43% | HT-29 Cell viability (%) ([8]; 3.3333 µM, Repetition): 53.45% and 49.18% | HT-29 Cell viability (%) ([8]; 3.3333 µM, first experiment): 66.80% and 71.86% | HT-29 Cell viability (%) ([8]; 10.0000 µM, Repetition): 3.09% and 3.77% | HT-29 Cell viability (%) ([8]; 10.0000 µM, first experiment): 4.59% and 5.12% | viability at 0.0137 µM ([8]; Repetition): 102% | viability at 0.0137 µM ([8]; first experiment): 94.8% | viability at 0.0412 µM ([8]; Repetition): 105% | viability at 0.0412 µM ([8]; first experiment): 93.8% | viability at 0.1235 µM ([8]; Repetition): 104% | viability at 0.1235 µM ([8]; first experiment): 88.1% | viability at 0.3704 µM ([8]; Repetition): 95.8% | viability at 0.3704 µM ([8]; first experiment): 88.9% | viability at 1.1111 µM ([8]; Repetition): 88.5% | viability at 1.1111 µM ([8]; first experiment): 92.4% | viability at 3.3333 µM ([8]; Repetition): 52.9% | viability at 3.3333 µM ([8]; first experiment): 70.7% | viability at 10 µM ([8]; Repetition): 3.22% | viability at 10 µM ([8]; first experiment): 4.71% | Number of cells ([9]; 0 h of treatment): 41307.05 and 44263.95 and 43595.63 and 48502.24 and 40389.64 | Number of cells ([9]; 12 h of treatment): 90535.27 and 109902.14 and 96345.55 and 78642.86 and 78628.27 and 80020.34 | Number of cells ([9]; 24 h of treatment): 118591.59 and 122111.73 and 126637.09 and 105052.10 and 107245.70 and 108446.50 | Number of cells ([9]; 36 h of treatment): 147204.34 and 141762.38 and 180655.61 and 129977.80 and 144707.50 and 146373.80 | Number of cells ([9]; 48 h of treatment): 236686.34 and 244575.91 and 256532.61 and 222624.00 and 201311.80 and 207320.10 | Number of cells ([9]; 60 h of treatment): 438717.24 and 412186.50 and 425643.09 and 324012.80 and 330875.70 and 354806.50
